Reference: US10603319B2, “Pyrimidine derivatives and their use in treating or preventing a respiratory syncytial virus infection” (REVIRAL LIMITED, priority 2016, dated 2020)

Assays:
P-gp (MDR1), human = test: in vitro; assay type: in vitro ADME; settings: dog, MDCK-MDR1
Method: MDR I-MDCK Permeability: Experimental Procedure
MDR1-MDCK cells obtained from the NIH (Rockville, Md., USA) are used between passage numbers 6-30. Cells are seeded onto Millipore Multiscreen Transwell plates at 3.4×10^5 cells/cm2. The cells are cultured in DMEM and media is changed on day 3. On day 4 the permeability study is performed. Cell culture and assay incubations are carried out at 37° C. in an atmosphere of 5% CO2 with a relative humidity of 95%. On the day of the assay, the monolayers are prepared by rinsing both basolateral and apical surfaces twice with Hanks Balanced Salt Solution (HBSS) at the desired pH warmed to 37° C. Cells are then incubated with HBSS at the desired pH in both apical and basolateral compartments for 40 min to stabilise physiological parameters.
The dosing solutions are prepared by diluting test compound with assay buffer to give a final test compound concentration of 10 μM (final DMSO concentration of 1% v/v). […]
Test compound permeability is assessed in duplicate. […]
Test and control compounds are quantified by LC-MS/MS cassette analysis using an 8-point calibration with appropriate dilution of the samples. The starting concentration (C0) is determined from the dosing solution and the experimental recovery calculated from C0 and both apical and basolateral compartment concentrations. […]

RSV A2_F = biological target: T1, RSV A2_F (Human respiratory syncytial virus A, UniProt P03420); test: RSV fusion assay (luciferase reporter, HEK 293T/17 cells transfected with A2_F); assay type: cell-based; settings: Fusion activity IC50 μM, HEK 293T/17 cells, 24 hr
T1 construct: expressed in transfected cells; host or cells: HEK 293T/17
Method: HEK 293T/17 cells were cultured in T75 culture flasks in Dulbecco's medium (DMEM) containing 10% FBS and 1× Penicillin-Streptomycin (Pen/Strep) and warmed to 37° C. prior to use. The cells were passaged by first washing briefly with 3 ml phosphate buffered saline (PBS) followed by a 4 min incubation with […] at 37° C. 7 ml media was then added to the flask and the cells dispersed via pipetting (×3) against the bottom of the flask. Two further T75 flasks were each seeded with 2×10^6 cells in 15 ml fresh media.
Cells were seeded on the T75 plates at the same density as on the 6-well plates the area of a T75 flask and one 1.75 cm radius well from a 6-well plate were compared. 7.79×2 ml of 3×10^5 cells ml^−1 was used to seed a single T75 flask.
HEK cells were removed from a T75 flask as described above. The cells were counted and diluted to 3×10^5 cells/ml in fresh media. Two T75 flasks were each seeded with 15.58 ml diluted cells.
The plasmid DNA (for pFR-Luc and pcDNA3.1_Gal4/NFκB) to be transfected into the HEK cells was first prepared in serum free media (DMEM+Pen/Strep) containing the transfection reagent Fugene 6 (Promega). Transfections were set up as follows (Luc=pFR_Luc, Gal4=pcDNA3.1+_Gal4/NFκB, A2_F=pcDNA3.1+_A2_F)
Serum free media was placed in a 1.5 ml eppendorf tube then the fugene 6 was added into the media. The tube was vortexed for 1 s before being incubated at RT for 5 min. The plasmid DNA was then added to the tube, vortexed for 1 s, then incubated at RT for 15 min
The transfection reagents were then added to the appropriate T75 flask by tipping the flask on end and adding the reagents directly to the media already in the flask. The flask was then tipped on its back so the media could be mixed thoroughly whilst not disturbing the cells before placing the flask the right way up and incubating overnight at 37° C. and 5% CO2.
Compounds were diluted (in a polypropylene round-bottomed 96 well plate) 1:3 in a twelve point dilution curve to give top [final] of either 3.3 μM, 1 μM, 500 nM 200 nM or 100 nM. The Control compound was always run at a concentration of 100 nM.
The cells were then counted and diluted to 4×10^5 cells/ml in fresh media. 50 μl of transfection population 1 cells were added to all wells of the assay plates. 100 μl diluted compound (2 rows per compound), standard curve (one row) and controls (100 nM RV (100% inhibition, four wells), DMSO (0% inhibition, eight wells)) were added to the appropriate wells. 50 μl of the diluted (4×10^5 cells/ml) transfection population 2 cells when then added to all wells.
The plates were then incubated for 24 hr at 37° C. and 5% CO2
Buffers were prepared for the luciferase assay (20 mM tricine, 10 mM MgSO4, 1 mM EDTA, 10 mM DTT) and lysis (25 mM tris-phosphate, 8 mM MgCl2, 1 mM DTT, 1% Triton X-100, 15% glycerol) and stored at −20° C.
Luminescence was measured as described:
Media was discarded into Virkon and the plates washed with 100 ul PBS per well. 20 ul/well of lysis buffer was added to each well and incubated shaking for 5 min at RT. Luciferin was added to LAAB at a dilution of 1:50 to give a working luciferin buffer. 100 μl working luciferin buffer was added to each well and luminescence was measured immediately. […]

T1 sequence (P03420 137-574): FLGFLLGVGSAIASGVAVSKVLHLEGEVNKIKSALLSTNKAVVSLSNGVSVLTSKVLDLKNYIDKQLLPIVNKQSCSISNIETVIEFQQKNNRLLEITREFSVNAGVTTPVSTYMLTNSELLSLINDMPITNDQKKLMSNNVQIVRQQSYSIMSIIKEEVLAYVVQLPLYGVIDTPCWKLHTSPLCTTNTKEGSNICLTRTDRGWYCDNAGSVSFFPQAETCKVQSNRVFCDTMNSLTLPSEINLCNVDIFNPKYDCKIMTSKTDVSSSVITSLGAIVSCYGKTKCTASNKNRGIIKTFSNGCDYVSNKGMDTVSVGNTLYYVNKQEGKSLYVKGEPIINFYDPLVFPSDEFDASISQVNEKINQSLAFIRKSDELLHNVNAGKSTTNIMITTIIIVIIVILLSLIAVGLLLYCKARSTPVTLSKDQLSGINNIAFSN
T1 sequence (P03420 26-109): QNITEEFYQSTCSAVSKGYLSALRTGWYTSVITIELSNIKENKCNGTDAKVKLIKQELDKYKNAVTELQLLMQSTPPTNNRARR

NC1CCN(c2ncc(CN3C(=O)C4(CC4)c4ccc(F)cc43)c(N[C@H]3CC[C@H](O)CC3)n2)C1 (stereo partly drawn) [Compound 2, 1′-((2-(3-Aminopyrrolidin-1-yl)-4-(((1r,4r)-4-hydroxycyclohexyl)amino)pyrimidin-5-yl)methyl)-6′-fluorospiro[cyclopropane-1,3′-indolin]-2′-one]
Papp A→B at 60 min, 10 μM (P-gp (MDR1), human): 0.32 ×10⁻⁶ cm/s | Papp B→A at 60 min, 10 μM (P-gp (MDR1), human): 7.99 ×10⁻⁶ cm/s | IC50 (RSV A2_F): 0.237 µM
